Measured values published in PubChem BioAssay (NCI).
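Assay format: 96-well plates, 48-hour exposure. GI50 is the concentration that inhibits growth by half. At the TGI there is no net growth.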

Legend:
Assay in all cases: NCI-60 cell line screen, 48 h
BT-549 breast = tested on: BT-549 breast
SK-MEL-5 melanoma = tested on: SK-MEL-5 melanoma
MDA-MB-435 = tested on: MDA-MB-435
NCI-H23 lung = tested on: NCI-H23 lung
MDA-MB-231 breast = tested on: MDA-MB-231 breast
HCT-116 colon = tested on: HCT-116 colon
SNB-75 CNS = tested on: SNB-75 CNS
M14 melanoma = tested on: M14 melanoma
OVCAR-3 ovarian = tested on: OVCAR-3 ovarian
DU-145 prostate = tested on: DU-145 prostate
KM12 colon = tested on: KM12 colon
MCF7 breast = tested on: MCF7 breast
SK-MEL-2 melanoma = tested on: SK-MEL-2 melanoma
SNB-19 CNS = tested on: SNB-19 CNS
SF-539 CNS = tested on: SF-539 CNS
T-47D breast = tested on: T-47D breast
HS 578T breast = tested on: HS 578T breast
HT29 colon = tested on: HT29 colon
UO-31 renal = tested on: UO-31 renal
CAKI-1 renal = tested on: CAKI-1 renal
NCI-H460 lung = tested on: NCI-H460 lung
NCI-H226 lung = tested on: NCI-H226 lung
NCI/ADR-RES ovarian = tested on: NCI/ADR-RES ovarian
OVCAR-8 ovarian = tested on: OVCAR-8 ovarian
A498 renal = tested on: A498 renal
786-0 renal = tested on: 786-0 renal
HL-60(TB) leukemia = tested on: HL-60(TB) leukemia
MOLT-4 leukemia = tested on: MOLT-4 leukemia
LOX IMVI melanoma = tested on: LOX IMVI melanoma
SN12C renal = tested on: SN12C renal
HOP-92 NSCLC = tested on: HOP-92 NSCLC
ACHN renal = tested on: ACHN renal
SW-620 colon = tested on: SW-620 colon
OVCAR-4 ovarian = tested on: OVCAR-4 ovarian
K-562 leukemia = tested on: K-562 leukemia
U251 CNS = tested on: U251 CNS
IGROV1 ovarian = tested on: IGROV1 ovarian
A549 NSCLC = tested on: A549 NSCLC
RPMI-8226 leukemia = tested on: RPMI-8226 leukemia
SK-OV-3 ovarian = tested on: SK-OV-3 ovarian
SK-MEL-28 melanoma = tested on: SK-MEL-28 melanoma
HCT-15 colon = tested on: HCT-15 colon
RXF 393 renal = tested on: RXF 393 renal
HOP-62 NSCLC = tested on: HOP-62 NSCLC
NCI-H522 lung = tested on: NCI-H522 lung
SF-295 CNS = tested on: SF-295 CNS
UACC-257 melanoma = tested on: UACC-257 melanoma
PC-3 prostate = tested on: PC-3 prostate
HCC-2998 colon = tested on: HCC-2998 colon
TK-10 renal = tested on: TK-10 renal
OVCAR-5 ovarian = tested on: OVCAR-5 ovarian
CCRF-CEM leukemia = tested on: CCRF-CEM leukemia
SF-268 CNS = tested on: SF-268 CNS
COLO 205 colon = tested on: COLO 205 colon

COc1cc(N2CCC(N)CC2)ccc1Nc1ncc(Cl)c(-c2c[nH]c3ccccc23)n1
GI50 (BT-549 breast): 1560 nM | TGI (BT-549 breast): 3.39 µM | GI50 (SK-MEL-5 melanoma): 1490 nM | TGI (SK-MEL-5 melanoma): 2840 nM | GI50 (MDA-MB-435): 266 nM | TGI (MDA-MB-435): 1770 nM | GI50 (NCI-H23 lung): 925 nM | TGI (NCI-H23 lung): 3.06 µM | GI50 (MDA-MB-231 breast): 1220 nM | TGI (MDA-MB-231 breast): 2790 nM | GI50 (HCT-116 colon): 422 nM | TGI (HCT-116 colon): 1780 nM | GI50 (SNB-75 CNS): 417 nM | TGI (SNB-75 CNS): 1970 nM | GI50 (M14 melanoma): 373 nM | TGI (M14 melanoma): 1730 nM | GI50 (OVCAR-3 ovarian): 1140 nM | TGI (OVCAR-3 ovarian): 3.71 µM | GI50 (DU-145 prostate): 340 nM | TGI (DU-145 prostate): 1880 nM | GI50 (KM12 colon): 302 nM | TGI (KM12 colon): 1140 nM | GI50 (MCF7 breast): 28.3 nM | TGI (MCF7 breast): 1410 nM | GI50 (SK-MEL-2 melanoma): 230 nM | TGI (SK-MEL-2 melanoma): 982 nM | GI50 (SNB-19 CNS): 1380 nM | TGI (SNB-19 CNS): 4.19 µM | GI50 (SF-539 CNS): 437 nM | TGI (SF-539 CNS): 1700 nM | GI50 (T-47D breast): 1780 nM | TGI (T-47D breast): 4.72 µM | GI50 (HS 578T breast): 741 nM | TGI (HS 578T breast): 3.87 µM | GI50 (HT29 colon): 34.3 nM | TGI (HT29 colon): 1430 nM | GI50 (UO-31 renal): 339 nM | TGI (UO-31 renal): 2120 nM | GI50 (CAKI-1 renal): 335 nM | TGI (CAKI-1 renal): 2100 nM | GI50 (NCI-H460 lung): 235 nM | TGI (NCI-H460 lung): 1660 nM | GI50 (NCI-H226 lung): 334 nM | TGI (NCI-H226 lung): 3.59 µM | GI50 (NCI/ADR-RES ovarian): 1490 nM | TGI (NCI/ADR-RES ovarian): 4.11 µM | GI50 (OVCAR-8 ovarian): 1130 nM | TGI (OVCAR-8 ovarian): 2440 nM | GI50 (A498 renal): 123 nM | TGI (A498 renal): 386 nM | GI50 (786-0 renal): 546 nM | TGI (786-0 renal): 1950 nM | GI50 (HL-60(TB) leukemia): 41.2 nM | TGI (HL-60(TB) leukemia): 2750 nM | GI50 (MOLT-4 leukemia): 1400 nM | TGI (MOLT-4 leukemia): 4.86 µM | GI50 (LOX IMVI melanoma): 226 nM | TGI (LOX IMVI melanoma): 1580 nM | GI50 (SN12C renal): 869 nM | TGI (SN12C renal): 3.76 µM | GI50 (HOP-92 NSCLC): 35 nM | TGI (HOP-92 NSCLC): 345 nM | GI50 (ACHN renal): 292 nM | TGI (ACHN renal): 1940 nM | GI50 (SW-620 colon): 183 nM | TGI (SW-620 colon): 1440 nM | GI50 (OVCAR-4 ovarian): 235 nM | TGI (OVCAR-4 ovarian): 3.66 µM | GI50 (K-562 leukemia): 1580 nM | TGI (K-562 leukemia): 5.03 µM | GI50 (U251 CNS): 407 nM | TGI (U251 CNS): 1790 nM | GI50 (IGROV1 ovarian): 405 nM | TGI (IGROV1 ovarian): 2230 nM | GI50 (A549 NSCLC): 248 nM | TGI (A549 NSCLC): 1650 nM | GI50 (RPMI-8226 leukemia): 1280 nM | TGI (RPMI-8226 leukemia): 3.89 µM | GI50 (SK-OV-3 ovarian): 680 nM | TGI (SK-OV-3 ovarian): 2800 nM | GI50 (SK-MEL-28 melanoma): 1310 nM | TGI (SK-MEL-28 melanoma): 2640 nM | GI50 (HCT-15 colon): 323 nM | TGI (HCT-15 colon): 1960 nM | GI50 (RXF 393 renal): 338 nM | TGI (RXF 393 renal): 1410 nM | GI50 (HOP-62 NSCLC): 389 nM | TGI (HOP-62 NSCLC): 1990 nM | GI50 (NCI-H522 lung): 447 nM | TGI (NCI-H522 lung): 1850 nM | GI50 (SF-295 CNS): 1540 nM | TGI (SF-295 CNS): 3.31 µM | GI50 (UACC-257 melanoma): 1020 nM | TGI (UACC-257 melanoma): 2340 nM | GI50 (PC-3 prostate): 1000 nM | TGI (PC-3 prostate): 3.63 µM | GI50 (HCC-2998 colon): 649 nM | TGI (HCC-2998 colon): 2230 nM | GI50 (TK-10 renal): 360 nM | TGI (TK-10 renal): 1600 nM | GI50 (OVCAR-5 ovarian): 137 nM | TGI (OVCAR-5 ovarian): 2110 nM | GI50 (CCRF-CEM leukemia): 2170 nM | TGI (CCRF-CEM leukemia): 7.15 µM | GI50 (SF-268 CNS): 846 nM | TGI (SF-268 CNS): 3.35 µM | GI50 (COLO 205 colon): 24.8 nM | TGI (COLO 205 colon): 269 nM
